From patent US20080108622A1, “COMBINATION THERAPY FOR THE TREATMENT OF PAIN” (priority 2006, published 2008)
“Also recorded” adds a separate entry of the source.

How the values were obtained:
adult male rats = assay: Postincisional hypersensitivity model of postoperative pain (paw incision, withdrawal threshold to von Frey filaments); assay type: in vivo, rat; conditions: intrathecal (i.t.), 24 h after paw incision surgery
Experimental: Animal preparation: Following Animal Care and Use Committee approval, an intrathecal (i.t.) catheter with tip in the lumbar space is inserted as previously described in adult male rats weighing 250 g (Yaksh and Rudy, Physiol Behav. 1976, 7, 1032-1036). One week following the insertion of the i.t. catheter, paw incision surgery is performed as previously described (Brennan et al., Pain 1996, 64, 493-501). Briefly, animals are anesthetized with halothane, and a 1-cm long incision is made in the plantar aspect of the left hind paw starting 0.5 cm from the edge of the heel toward the toe after sterile preparation with 70% ethanol. The plantaris muscle is elevated and incised longitudinally. The wound is closed with 2 mattress sutures of 5.0 silk. Subsequently, withdrawal threshold to von Frey filaments is determined one day after surgery (Chaplan et al., J. Neurosci. Methods, 1994, 53, 55-63). For all testing but pilot dose ranging studies, investigators are blinded to study drug administration. A cut off value of 22 g is used. […]
Single drug injection: For single drug administration, a volume containing 5 μL drug is used, followed by 10 μL of saline. […] Dose response curves are first constructed, and ED40 values for single drugs are then determined at the time of peak effect.
Drug interaction: For the combination of T-62 with morphine and NBQX, two injections are performed since the time of peak effect for morphine and NBQX is 30 min earlier than that of T-62 (T-62 is injected 30 min before drug injections). Paw withdrawal thresholds are determined before surgery, before drug injection, and 30, 60, 90, 120, 150, 180, and 210 min after the second drug injection. […] The dose response curves are then constructed for the combined drugs, and the ED40 values of the combined drugs are calculated at the time point of peak effect. […]
Data analysis: Data are presented as mean ±S.E. Withdrawal threshold data are analyzed by two-way analysis of variance followed by Fisher's LSD test. […] Isobolograms are statistically analyzed by student T test.

male Sprague-Dawley rats = assay: Neuropathic pain model (Chung model, spinal nerve ligation, withdrawal threshold to von Frey filaments); assay type: in vivo, rat; conditions: Chung model of chronic neuropathic pain, FIG. 8; for anti-allodynic effects: intrathecal single injection
Source text: Spinal Nerve Ligation: After Animal Care and Use Committee approval, male Sprague-Dawley rats (Harlan, Indianapolis, Ind., USA) weighing 180-200 g undergo anesthesia as previously described by Kim and Chung (Pain 1992, 50, 355-363). Briefly, under general anesthesia with inhalational halothane, the left L5 and L6 spinal nerves are identified through a small laminotomy and tightly ligated. Approximately one week later, an intrathecal catheter is placed under general anesthesia by insertion under direct vision of a polyethylene catheter through a small slit in the dura at the cisterna magnum, and advanced 8.5 cm such that the catheter tip resides in the lower lumbar intrathecal space. Animals are studied approximately one week later. Ligation of the lumbar spinal nerves results in a primarily unilateral increase in the sensitivity to light touch on the operated side. Sensitivity is assessed via application of calibrated von Frey filaments. The withdrawal threshold is determined using an up down method as previously described by Chaplan et al. (J. Neurosci. Methods 1994, 53, 55-63).
Experimental Design: Animals receive, at least 4 weeks after spinal nerve ligation surgery, and at least 1 week after intrathecal catheter insertion, single injections of vehicle (β-cyclodextrin) or the drug substance, using a randomized and blinded protocol. Withdrawal thresholds are determined at intervals for up to 20 hr after injection.

[1] = cited from earlier work

SMILES	anti-hypersensitivity effect (reduction of mechanical hypersensitivity) (adult male rats)	anti-allodynic effects (male Sprague-Dawley rats)	further results
CN1CC[C@]23c4c5ccc(O)c4O[C@H]2[C@@H](O)C=C[C@H]3[C@H]1C5 [Morphine, morphine, reference compound]	reduces mechanical hypersensitivity in a time and dose dependent manner	–	–
NS(=O)(=O)c1cccc2c1c([N+](=O)[O-])cc1nc(O)c(O)nc12 [NBQX, 2,3-dihydroxy-6-nitro-7-sulfamoylbenzo(f)quinoxaline, reference compound]	reduces the mechanical hypersensitivity in a time and dose dependent manner	–	–
Nc1sc2c(c1C(=O)c1ccc(Cl)cc1)CCCC2 [T-62, (2-amino-4,5,6,7-tetrahydrobenzo[b]thiophen-3-yl)(4-chlorophenyl)methanone]	reduced mechanical hypersensitivity in a time dependent manner; also recorded: modest effect	dose-dependent anti-allodynic effects	effect on inflammatory and neuropathic pain ([1]; literature (Li et al. 2003, Li et al. 2002, Pan et al. 2001; US 6,248,774, US 6,489,356)): reduce inflammatory and neuropathic pain; oral efficacy ([1]; literature): orally effective; adverse side effects ([1]; literature, compared with administration of adenosine): avoid of the adverse side effects associated with administration of adenosine
Nc1sc2c(c1C(=O)c1ccccc1)CCS2 [formula (Ib)]	–	dose-dependent anti-allodynic effects	–
Nc1sc2c(c1C(=O)c1cccc3ccccc13)CCC2 [formula (Ic)]	–	dose-dependent anti-allodynic effects	relative potency among the three enhancers (male Sprague-Dawley rats): most potent enhancer of the three agents
